The results in this text go back to US5852011A, “Benzimidazole derivatives” (Mitsui Chemicals, Inc., priority 1994, dated 1998).

Structures can show the parent of a compound that is named as a salt.

The first assay relates to mouse B16 melanoma cells. As to the kind of experiment: In vitro inhibition of proliferation of tumored cells, mouse B16 melanoma (Test 2). The following applies: 3 days in 5% CO2 at 37° C., 96-well plate. The assay is classed as cell-based. Here is the method:
A description will next be made of antitumor activities of these compounds. Their antitumor activities were determined by measuring their in vitro inhibition of proliferation of tumored cells. Namely, mouse B16 melanoma cells were spread over a 96-well culture plate. One day later, each drug was applied. The melanoma cells were then incubated for 3 days in 5% CO2 at 37° C. Following the method reported in Cancer Res., 48, 589-601(1988), the concentration of the drug required to induce 50% inhibition on the proliferation was determined. As a comparative example, the results obtained from the application of distamycin are also shown.
Turning to `Cn1cc(NC(=O)CC[S+](C)C)cc1-c1nc2cc(C(=O)Nc3ccc(N(CCCl)CCCl)c(F)c3)ccc2[nH]1` [1076 (Cl' salt), 2-[N-[1-Methyl-2-[5-[N-[3-fluoro-4-[N,N-bis(2-chloroethyl)amino]phenyl]]carbamoyl]-1H-benzimidazol-2-ylpyrrol-4-yl]carbamoylethyl-dimethylsulfonium chloride], the “50% Inhibition” value came to 0.45 µg/mL. In the case of `Cn1cc(NC(=O)CCc2ccc(N(CCCl)CCCl)cc2)cc1-c1nc2cc(C(=O)NCCC(=N)N)ccc2[nH]1` [Compound 3, 1H-2-[4-[3-[4-[N,N-Bis(2-chloroethyl)amino]phenyl]propionylamino]-1-methylpyrrol-2-yl]benzimidazole-5-[N-(2-amidinoethyl)]carboxamide hydrochloride], the “50% Inhibition” value was determined as 0.019 µg/mL. In the case of `Cn1cc(NC(=O)c2ccc(CN(CCCl)CCCl)cc2)cc1-c1nc2cc(C(=O)NCCC(=N)N)ccc2[nH]1` [Compound 14, 1H-2-[4-[4-[N,N-Bis(2-chloroethyl)aminomethyl]benzoylamino]-1-methylpyrrol-2-yl]benzimidazole-5-(N-(2-amidinoethyl)]carboxamide hydrochloride], the “50% Inhibition” value is 0.57 µg/mL. For the compound `Cn1cc(NC(=O)c2cccc(N(CCCl)CCCl)c2)cc1-c1nc2cc(C(=O)NCCC(=N)N)ccc2[nH]1` [Compound 15, 1H-2-[4-[3-[N,N-bis(2-chloroethyl)amino]benzoylamino]-1-methylpyrrol-2-yl]benzimidazole-5-[N-(2-amidinoethyl)]carboxamide hydrochloride], the “50% Inhibition” value stood at 0.057 µg/mL. In the case of `Cn1cc(NC(=O)c2ccc(N(CCCl)CCCl)cc2)cc1-c1nc2cc(C(=O)NCCN)ccc2[nH]1` [Compound 129, 1H-2-[4-[4-[N,N-Bis(2-chloroethyl)amino]benzoylamino]-1-methylpyrrol-2-yl]benzimidazole-5-[N-(2-aminoethyl)]carboxamide hydrochloride], the “50% Inhibition” value is 0.18 µg/mL.

For the compound `Cn1cc(NC(=O)c2ccc(N(CCCl)CCCl)cc2)cc1-c1nc2cc(C(=O)NCc3cccnc3)ccc2[nH]1` [Compound 223, 1H-2-[4-[4-[N,N-Bis(2-chloroethyl)amino]benzoylamino]-1-methylpyrrol-2-yl]benzimidazole-5-[N-(3-picolyl)]carboxamide hydrochloride], the “50% Inhibition” value is 1.1 µg/mL.

As to `Cn1cc(NC(=O)c2ccc(N(CCCl)CCCl)cc2)cc1-c1nc2cc(C(=O)NCc3ccc[n+](C)c3)ccc2[nH]1` [Compound 247, 3-[[1H-2-[4-[4-[N,N-Bis(2-chloroethyl)amino]-benzoylamino]-1-methylpyrrol-2-yl]benzimidazole-5-carboxamido]methyl]-1-methylpyridinium chloride], the “50% Inhibition” value was determined as 2.6 µg/mL.

Consider `Cn1cc(NC(=O)c2ccc(N(CCBr)CCBr)cc2)cc1-c1nc2cc(C(=O)NCCC(=N)N)ccc2[nH]1` [Compound 260, 1H-2-[4-[4-[N,N-Bis(2-bromoethyl)amino]benzoylamino]-1-methylpyrrol-2-yl]benzimidazole-5-[N-(2-amidinoethyl)]carboxamide hydrochloride], for which the “50% Inhibition” value worked out at 0.034 µg/mL.

`CCCCNC(=O)c1ccc2[nH]c(-c3cc(NC(=O)c4ccc(N(CCCl)CCCl)cc4)cn3C)nc2c1` [Compound 336, 1H-2-[4-[4-[N,N-Bis(2-chloroethyl)amino]benzoylamino]-1-methylpyrrol-2-yl]benzimidazole-5-(N-butyl)carboxamide]: the “50% Inhibition” value stood at 0.24 µg/mL. Regarding `N=C(N)CCNC(=O)c1ccc2[nH]c(-c3csc(NC(=O)CCCc4ccc(N(CCCl)CCCl)cc4)c3)nc2c1` [Compound 424, 1H-2-[2-[4-[4-[N,N-Bis(2-chloroethyl)amino]phenyl]butyrylamino]thiophen-4-yl]benzimidazole-5-[N-(2-amidinoethyl)]carboxamide hydrochloride], the “50% Inhibition” value turned out to be 0.08 µg/mL. Regarding `Cn1cc(NC(=O)CNC(=N)N)cc1-c1nc2cc(C(=O)NCCCc3ccc(N(CCCl)CCCl)cc3)ccc2[nH]1` [Compound 1004, 1H-2-[4-(2-Guanidinoacetylamino)-1-methylpyrrol-2-yl]benzimidazole-5-[N-[3-[4-[N,N-bis(2-chloroethyl)amino]phenyl]propyl]]carboxamide hydrochloride], the “50% Inhibition” value turned out to be 0.047 µg/mL. Consider `CN(C)CCNC(=O)c1cc(N(CCCl)CCCl)ccc1NC(=O)c1ccc2[nH]c(-c3cc(NC(=O)CNC(=N)N)cn3C)nc2c1` [Compound 1042, 1H-2-[1-Methyl-4-(guanidinoacetylamino)pyrrol-2-yl]benzimidazole-5-[N-[2-[N-[(N,N-dimethylamino)ethyl]carboxamido]-4-[N,N-bis(2-chloroethyl)amino]phenyl]]carboxamide dihydrochloride], for which the “50% Inhibition” value amounted to 3.49 µg/mL. As for `Cn1cc(NC(=O)CNC(=N)N)cc1-c1nc2cc(C(=O)Nc3cccc(N(CCCl)CCCl)c3)ccc2[nH]1` [Compound 1047, 1H-2-[1-Methyl-4-(guanidinoacetylamino)pyrrol-2-yl]benzimidazole-5-[N-[3-[N,N-bis(2-chloroethyl)amino]phenyl]]carboxamide dihydrochloride], the “50% Inhibition” value was found to be 0.0946 µg/mL. For the compound `Cn1cc(NC(=O)CC[S+](C)C)cc1-c1nc2cc(C(=O)Nc3ccc(N(CCCl)CCCl)c(Cl)c3)ccc2[nH]1` [Compound 1072, 2-[N-[1-Methyl-2-[5-[N-[3-chloro-4-[N,N-bis(2-chloroethyl)amino]phenyl]]carbamoyl]-1H-benzimidazol-2-yl]pyrrol-4-yl]carbamoylethyl-dimethylsulfonium chloride], the “50% Inhibition” value came to 0.51 µg/mL.

The same assay, now with this note: Mus musculus, B16, 72 h, read-out: 50% Inhibition.
Turning to `CCN(CCCl)c1ccc(NC(=O)c2ccc3[nH]c(-c4cc(NC(=O)CNC(=N)N)cn4C)nc3c2)cc1` [Compound 1048, 1H-2-[1-Methyl-4-(2-guanidinoacetylamino)pyrrol-2-yl]benzimidazol-5-[N-[4-[N-ethyl,N-(2-chloroethyl)amino]phenyl]]carboxamide dihydrochloride], the IC50 turned out to be 5.58 µg/mL. The same measure, in the same setting: then `CCN(CCCl)c1cccc(NC(=O)c2ccc3[nH]c(-c4cc(NC(=O)CNC(=N)N)cn4C)nc3c2)c1` [Compound 1049, 1H-2-[1-Methyl-4-(guanidinoacetylamino)pyrrol-2-yl]benzimidazol-5-[N-[3-[N-ethyl,N-(2-chloroethyl)amino]phenyl]]carboxamide hydrochloride], with 0.274 µg/mL.

Staying with this assay, now noted: Mus musculus, B16, 72 h; 3 days in 5% CO2 at 37° C., 96-well plate; read-out: 50% Inhibition.
As to `Cn1cc(NC(=O)CCCCCBr)cc1-c1nc2cc(C(=O)NCCC(=N)N)ccc2[nH]1` [Compound 16, hydrochloride], the IC50 is 0.6 µg/mL. Same read-out and setting: then `Cn1cc(NC(=O)c2ccccc2)cc1-c1nc2cc(C(=O)NCCC(=N)N)ccc2[nH]1` [Compound 326, 1H-2-(4-Benzoylamino-1-methylpyrrol-2-yl)benzimidazole-5-[N-(2-amidinoethyl)]carboxamide hydrochloride], with 12 µg/mL; and `N=C(N)CCNC(=O)c1ccc2[nH]c(-c3csc(NC(=O)c4ccccc4)c3)nc2c1` [Compound 438, 1H-2-(2-Benzoylaminothiophen-4-yl)benzimidazole-5-[N-(2-amidinoethyl)]carboxamide hydrochloride], with 42.8 µg/mL.
